Results: patent US11377442B2, “Small molecule agonists and antagonists of NR2F6 activity” (ZANDER THERAPEUTICS, INC., priority 2016, dated 2022)
Where two headings read alike, the source gives them in different places.

Experiments:
Assay type in all cases: cell-based
NR2F6 = target: T1, NR2F6 (Homo sapiens, UniProt P10588); assay: NR2F6 agonist screening, Firefly signal cmpd/DMSO
T1 construct: expressed in transfected cells; also transient transfection
T1 sequence (P10588 1-404): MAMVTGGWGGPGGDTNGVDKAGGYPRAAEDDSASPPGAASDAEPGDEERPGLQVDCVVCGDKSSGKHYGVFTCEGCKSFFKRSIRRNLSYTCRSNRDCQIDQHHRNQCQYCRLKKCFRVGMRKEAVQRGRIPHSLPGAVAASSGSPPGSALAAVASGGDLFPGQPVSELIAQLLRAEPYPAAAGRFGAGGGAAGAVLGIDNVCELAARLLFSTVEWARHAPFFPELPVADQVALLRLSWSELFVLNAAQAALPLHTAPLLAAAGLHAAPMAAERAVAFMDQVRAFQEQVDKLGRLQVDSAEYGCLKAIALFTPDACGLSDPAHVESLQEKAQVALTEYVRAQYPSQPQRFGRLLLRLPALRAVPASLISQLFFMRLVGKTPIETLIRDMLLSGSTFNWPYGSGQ

Renilla = Renilla signal in NR2F6 agonist screening, cmpd/DMSO; conditions: Renilla, F4
HEK293 pGL4 = assay: Firefly_pGL signal, cmpd/DMSO (pGL4 control cells); conditions: Homo sapiens
NR2F6 LBD = target: T2, NR2F6 LBD (Homo sapiens, UniProt P10588); assay: NR2F6 LBD transient transfection; conditions: LBD
T2 construct: expressed in transfected cells
T2 sequence (P10588 165-393 limits assumed): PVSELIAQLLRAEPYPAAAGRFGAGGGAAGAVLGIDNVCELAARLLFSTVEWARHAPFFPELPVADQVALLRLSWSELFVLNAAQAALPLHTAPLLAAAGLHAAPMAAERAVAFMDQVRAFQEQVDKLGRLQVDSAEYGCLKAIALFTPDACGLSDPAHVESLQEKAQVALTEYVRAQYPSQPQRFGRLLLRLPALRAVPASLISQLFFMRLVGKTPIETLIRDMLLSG
Experimental: FIGS. 27A and 27B show NR2F6 and LBD transient transfection, respectively, for Compound D28. Higher concentrations were excluded due to lower signal (tox effect). FIGS. 27C and 27D show NR2F6 and LBD transient transfection at different concentrations for different compounds. 9 compounds were tested on LBD transfected cells (40, 10, 2 and 0.5 μM, 4 replicates). FIGS. 27E and 27F show toxicity of Compound D28. 9 compounds were tested for cytotoxicity on LBD transfected cells (40, 10, 2 and 0.5 μM, 4 replicates). […] Cytotoxicity normalized to DMSO is shown in FIG. 27F (0% cytotoxicity corresponds to DMSO signal, 100%—zero signal).
FIGS. 34A and 34B show NR2F6 LBD transient transfection for Compound E21. 9 compounds were tested on LBD transfected cells (40, 10, 2 and 0.5 μM, 4 replicates). FIGS. 34C and 34D show NR2F6 and LBD transient transfection at different concentrations for different compounds. 9 compounds were tested on LBD transfected cells (40, 10, 2 and 0.5 μM, 4 replicates). […] Cytotoxicity normalized to DMSO is shown in FIG. 34D (0% cytotoxicity corresponds to DMSO signal, 100%—zero signal). All compounds were tested at 5, 10, 25 and 50 uM in duplicates. Dog PBMC (1×10^6 cells/mL) were activated by 10 ng/mL PMA+500 ng/mL ionomycin. Data were normalized to controls with (100%)/without (0%) PMA+ionomycin activation.
FIGS. 39A and 39B show NR2F6 LBD transient transfection for Compound F1. 9 compounds were tested on LBD transfected cells (40, 10, 2 and 0.5 μM, 4 replicates). FIGS. 39C and 39D show toxicity of NR2F6 LBD transient transfection. 9 compounds were tested for cytotoxicity on LBD transfected cells (40, 10, 2 and 0.5 μM, 4 replicates). Tox effect causes lower signal compared to DMSO. Cytotoxicity normalized to DMSO is shown in FIG. 39D (0% cytotoxicity corresponds to DMSO signal, 100%—zero signal).

[1] = read-out: Renilla, F4, cmpd/DMSO (mean)
[2] = 1% FBS, read-out: Renilla, F4, 1% FBS, cmpd/DMSO (mean)
[3] = 10% FBS, read-out: Renilla, F4, 10% FBS, cmpd/DMSO (mean)

## CCC(C)N[C@H]1CS(=O)(=O)C[C@@H]1S(=O)(=O)c1ccc(C)cc1 (stereo partly drawn) [Compound D113]
NR2F6; 0.5 uM
  Firefly F4, cmpd/DMSO (mean): 1.3
  Firefly, F4, 1% FBS, cmpd/DMSO (mean): 1.4
NR2F6; 2 uM
  Firefly F4, cmpd/DMSO (mean): 1.6
  Firefly, F4, 1% FBS, cmpd/DMSO (mean): 1.1
NR2F6; 10 uM
  Firefly F4, cmpd/DMSO (mean): 2.8
  Firefly, F4, 1% FBS, cmpd/DMSO (mean): 2.8
NR2F6; 40 uM
  Firefly F4, cmpd/DMSO (mean): 3.3
  Firefly, F4, 1% FBS, cmpd/DMSO (mean): 2.5
NR2F6; 10% FBS, 40 uM
  F4, Firefly/Renilla for S/B(F4) > 3: 3.2
  Firefly, F4/pGL4 for S/B(F4) > 3: 2.3
  Firefly, F4, 10% FBS, cmpd/DMSO (mean): 5.8
NR2F6; 10% FBS, 0.5 uM
  Firefly, F4, 10% FBS, cmpd/DMSO (mean): 1.7
NR2F6; 10% FBS, 2 uM
  Firefly, F4, 10% FBS, cmpd/DMSO (mean): 1.5
NR2F6; 10% FBS, 10 uM
  Firefly, F4, 10% FBS, cmpd/DMSO (mean): 2.1
Renilla; [1]
  fold induction at 0.5 µM: 1.1
  fold induction at 2 µM: 1
  fold induction at 10 µM: 1.3
  fold induction at 40 µM: 1.4
Renilla; [2]
  fold induction at 0.5 µM: 1.3
  fold induction at 2 µM: 1.2
  fold induction at 10 µM: 1.6
  fold induction at 40 µM: 1.8
Renilla; [3]
  fold induction at 0.5 µM: 1
  fold induction at 2 µM: 1
  fold induction at 10 µM: 1.2
  fold induction at 40 µM: 1.8
HEK293 pGL4; HEK293, 0.5 uM, pGL4, read-out: Firefly pGL4, cmpd/DMSO (mean)
  fold induction at 0.5 µM: 1.2
HEK293 pGL4; HEK293, 2 uM, pGL4, read-out: Firefly pGL4, cmpd/DMSO (mean)
  fold induction at 2 µM: 1.1
HEK293 pGL4; HEK293, 10 uM, pGL4, read-out: Firefly pGL4, cmpd/DMSO (mean)
  fold induction at 10 µM: 2.6
HEK293 pGL4; HEK293, 40 uM, pGL4, read-out: Firefly pGL4, cmpd/DMSO (mean)
  fold induction at 40 µM: 2
HEK293 pGL4; HEK293, pGL4, 1% FBS, 0.5 uM, read-out: Firefly, pGL4, 1% FBS, cmpd/DMSO (mean)
  fold induction at 0.5 µM: 1
HEK293 pGL4; HEK293, pGL4, 1% FBS, 2 uM, read-out: Firefly, pGL4, 1% FBS, cmpd/DMSO (mean)
  fold induction at 2 µM: 1.2
HEK293 pGL4; HEK293, pGL4, 1% FBS, 10 uM, read-out: Firefly, pGL4, 1% FBS, cmpd/DMSO (mean)
  fold induction at 10 µM: 1.8
HEK293 pGL4; HEK293, pGL4, 1% FBS, 40 uM, read-out: Firefly, pGL4, 1% FBS, cmpd/DMSO (mean)
  fold induction at 40 µM: 1.6
HEK293 pGL4; HEK293, pGL4, 10% FBS, 0.5 uM, read-out: Firefly, pGL4, 10% FBS, cmpd/DMSO (mean)
  fold induction at 0.5 µM: 1.1
HEK293 pGL4; HEK293, pGL4, 10% FBS, 2 uM, read-out: Firefly, pGL4, 10% FBS, cmpd/DMSO (mean)
  fold induction at 2 µM: 1.2
HEK293 pGL4; HEK293, pGL4, 10% FBS, 10 uM, read-out: Firefly, pGL4, 10% FBS, cmpd/DMSO (mean)
  fold induction at 10 µM: 1.7
HEK293 pGL4; HEK293, pGL4, 10% FBS, 40 uM, read-out: Firefly, pGL4, 10% FBS, cmpd/DMSO (mean)
  fold induction at 40 µM: 2.5
NR2F6 LBD; 0.5 uM
  Firefly LBD, cmpd/DMSO (mean): 1.1
NR2F6 LBD; 2 uM
  Firefly LBD, cmpd/DMSO (mean): 1.3
NR2F6 LBD; 10 uM
  Firefly LBD, cmpd/DMSO (mean): 2.2
NR2F6 LBD; 40 uM
  Firefly LBD, cmpd/DMSO (mean): 2.5
